According to patent US20250129078A1, “ERBB2 INHIBITORS” (Cogent Biosciences, Inc., priority 2023, published 2025):

Columns and labels:
ErbB2 V777L = ErbB2 V777L (Homo sapiens (Human), UniProt P04626, V777L); experiment: ErbB enzyme assay (CisBio HTRF-KinEASE-TK), ErbB2 V777L; type: biochemical
Method in brief: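 HTRF KinEASE-TK tyrosine-kinase read-out of substrate phosphorylation after a final 1 h at ambient temperature, from the 655/620 nm emission ratio.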

[1] = Blood brain barrier penetration assay in CD-1 mice (short oral absorption model, Kpuu brain); type: in vivo; settings: mouse, brain and plasma, male CD-1 mice, 1 h post-dose, Kpuu brain = conc (brain)/conc (plasma) x (fu brain/fu plasma)
Procedure: In vitro plasma and brain binding assays were carried out using the equilibrium dialysis method. EDTA-anticoagulated plasma and diluted brain homogenate (1:3 with DPBS pH 7.4) were spiked with 2 μM test compound and dialyzed against an equal volume of 100 μL 100 mM sodium phosphate buffer (pH 7.4) at 37° C. for 4 h in a slowly rotated plate. At the end of the dialysis 50 μL aliquots from the buffer side and matrix side of the dialysis device were taken into new 96-well plates. An equal volume of opposite blank matrix (buffer or matrix) in each sample was added to reach a final volume of 100 μL. All samples were processed by protein precipitation for LC/MS/MS analysis. Unbound fraction (fu) of test compound was calculated by the ratio of buffer side response to the brain homogenate/plasma side response, and unbound fraction (fu,pl and fu,br) of test compound in non-diluted plasma and brain tissue were calculated from measured fu in homogenate and plasma with the following equation: fu,pl or fu,br=1/D/((1/(F/T)-1)+1/D). F is the free compound concentration as determined by the calculated concentration on the buffer side of the membrane and T is the total compound concentration as determined by the calculated concentration on the matrix side of the membrane. D is the dilution factor (D equals 1 for plasma, and 4 for brain).
A short oral absorption model is an in-vivo screening model to identify brain penetration of a compound. Three male CD-1 mice were orally dosed with an appropriate vehicle. At the 1 h timepoint post-dose, blood samples were collected via cardiac puncture, placed into EDTA anti-coagulated tubes, and spiked with 1% 1 mM quinidine (aq). The samples were placed on wet ice until centrifugation at 4000×g for 10 min. Brain tissue was rinsed with saline and the liquid was drained. The brains were weighed and transferred to tubes for homogenization. Each tube contained 1 g tissue, 9 mL buffer (1:2 v/v MeOH:15 mM PBS), and a spike of 1% 1 mM quinidine (aq). All samples were stored at −80° C. prior to LC/MS/MS analysis. Standards were prepared by spiking blank plasma and brain homogenate. Aliquots (10 μL) of sample, calibration standard, quality control, dilution quality control, single blank, and double blank were added to the 96-well plate respectively. Homogenized brain tissue along with plasma samples were precipitated by adding 190 μL cold MeCN containing internal standard (the double blank sample was quenched with 190 L MeCN). The mixture was vortex-mixed for 5 min at 1000 rpm and centrifuged for 10 min at 3220×g, 4° C. […] The free fraction of test compound in biological matrix was determined by using in vitro plasma and brain tissue free fraction. Kpuu brain was calculated by the equation: Kpuu brain=cone (brain)/conc (plasma)×(fu brain/fu plasma).

EGFR WT = EGFR WT (Homo sapiens (Human), UniProt P00533); experiment: ErbB enzyme assay (CisBio HTRF-KinEASE-TK), EGFR WT; type: biochemical; settings: ATP at Km (25 μM), 1 h incubation
EGFR WT, sequence (P00533 25-1210): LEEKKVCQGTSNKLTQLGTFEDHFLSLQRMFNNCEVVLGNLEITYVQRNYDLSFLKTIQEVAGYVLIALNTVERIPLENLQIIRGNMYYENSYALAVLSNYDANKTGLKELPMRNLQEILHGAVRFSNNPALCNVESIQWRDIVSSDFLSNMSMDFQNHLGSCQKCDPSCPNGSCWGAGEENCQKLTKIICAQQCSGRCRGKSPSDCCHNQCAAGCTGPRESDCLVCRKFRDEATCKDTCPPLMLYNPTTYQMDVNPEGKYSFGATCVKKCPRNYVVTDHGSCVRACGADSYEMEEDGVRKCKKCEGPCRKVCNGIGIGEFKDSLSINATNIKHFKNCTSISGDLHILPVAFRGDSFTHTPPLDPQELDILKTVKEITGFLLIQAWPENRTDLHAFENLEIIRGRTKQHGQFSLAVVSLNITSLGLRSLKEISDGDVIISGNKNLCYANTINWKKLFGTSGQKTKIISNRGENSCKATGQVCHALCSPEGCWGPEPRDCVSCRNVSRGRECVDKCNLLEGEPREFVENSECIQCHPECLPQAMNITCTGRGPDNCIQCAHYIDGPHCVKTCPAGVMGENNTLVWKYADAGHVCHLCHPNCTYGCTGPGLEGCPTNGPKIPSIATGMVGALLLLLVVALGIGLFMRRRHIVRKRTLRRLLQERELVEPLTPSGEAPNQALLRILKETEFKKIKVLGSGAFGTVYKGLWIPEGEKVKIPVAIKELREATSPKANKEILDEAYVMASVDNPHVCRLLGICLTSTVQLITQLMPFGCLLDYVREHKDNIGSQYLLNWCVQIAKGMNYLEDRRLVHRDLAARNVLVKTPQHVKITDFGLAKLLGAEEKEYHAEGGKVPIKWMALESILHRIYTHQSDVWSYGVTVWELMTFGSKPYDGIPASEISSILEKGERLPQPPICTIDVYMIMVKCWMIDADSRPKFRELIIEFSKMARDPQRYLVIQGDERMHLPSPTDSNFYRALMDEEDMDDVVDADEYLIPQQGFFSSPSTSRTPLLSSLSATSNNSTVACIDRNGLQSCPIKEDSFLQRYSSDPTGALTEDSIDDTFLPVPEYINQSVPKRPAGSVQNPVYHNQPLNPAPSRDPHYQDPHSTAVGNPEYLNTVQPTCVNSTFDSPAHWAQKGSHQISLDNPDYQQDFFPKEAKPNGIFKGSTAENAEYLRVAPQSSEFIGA
Method in brief: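 Three-fold DMSO serial dilutions were added to kinase reactions and incubated 1 h at room temperature. Quench used 62.5 nM Sa-XL665 plus 0.25×TK-Ab-Cryptate in detection buffer, followed by another 1 h. Substrate phosphorylation was then measured by dual-wavelength HTRF.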

ErbB2 V777L, sequence (P04626 23-1255 V777L): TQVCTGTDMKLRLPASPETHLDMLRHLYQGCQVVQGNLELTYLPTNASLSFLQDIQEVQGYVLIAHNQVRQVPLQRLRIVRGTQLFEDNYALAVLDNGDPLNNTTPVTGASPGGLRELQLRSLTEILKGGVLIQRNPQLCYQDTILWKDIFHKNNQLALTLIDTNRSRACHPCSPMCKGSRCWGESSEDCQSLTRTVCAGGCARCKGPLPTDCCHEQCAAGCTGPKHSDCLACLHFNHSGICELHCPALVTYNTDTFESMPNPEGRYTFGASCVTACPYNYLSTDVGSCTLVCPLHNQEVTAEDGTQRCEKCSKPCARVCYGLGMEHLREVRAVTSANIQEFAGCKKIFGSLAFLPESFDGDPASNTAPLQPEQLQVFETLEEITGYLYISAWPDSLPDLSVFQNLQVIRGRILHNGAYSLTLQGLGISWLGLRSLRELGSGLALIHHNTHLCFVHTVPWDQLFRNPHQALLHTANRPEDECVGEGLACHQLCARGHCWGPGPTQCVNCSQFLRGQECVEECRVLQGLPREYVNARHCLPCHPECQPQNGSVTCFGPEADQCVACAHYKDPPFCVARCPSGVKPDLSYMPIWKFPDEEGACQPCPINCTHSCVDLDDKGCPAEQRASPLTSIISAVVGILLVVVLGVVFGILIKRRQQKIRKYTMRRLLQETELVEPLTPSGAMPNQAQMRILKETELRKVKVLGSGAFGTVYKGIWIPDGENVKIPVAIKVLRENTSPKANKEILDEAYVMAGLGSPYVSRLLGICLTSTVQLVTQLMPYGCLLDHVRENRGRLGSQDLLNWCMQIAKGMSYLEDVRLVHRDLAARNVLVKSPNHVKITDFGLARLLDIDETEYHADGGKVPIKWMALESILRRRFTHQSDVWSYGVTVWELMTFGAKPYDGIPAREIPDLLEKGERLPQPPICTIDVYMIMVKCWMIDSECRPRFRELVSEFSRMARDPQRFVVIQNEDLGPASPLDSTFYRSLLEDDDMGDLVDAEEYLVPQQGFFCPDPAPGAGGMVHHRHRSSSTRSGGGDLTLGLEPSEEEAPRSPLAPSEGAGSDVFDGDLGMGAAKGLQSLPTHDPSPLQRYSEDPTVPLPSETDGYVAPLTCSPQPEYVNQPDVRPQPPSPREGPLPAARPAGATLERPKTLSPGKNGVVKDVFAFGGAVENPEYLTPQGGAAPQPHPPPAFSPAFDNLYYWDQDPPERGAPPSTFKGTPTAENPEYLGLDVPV

IC50 (ErbB2 V777L): < 50 nM
Kp uu at 1 h [1]: 0.12
IC50 (EGFR WT): < 50 nM
SMILES: C=CC(=O)N1CCN(c2ncc3ncnc(Nc4ccc(Oc5cc(F)c6c(c5)ncn6C)c(C)c4)c3n2)CC1 [Compound 64, 1-(4-(8-((4-((7-fluoro-1-methyl-1H-benzo[d]imidazol-5-yl)oxy)-3-methylphenyl)amino)pyrimido[5,4-d]pyrimidin-2-yl)piperazin-1-yl)prop-2-en-1-one]
